Assay results reported in ChEMBL document CHEMBL3046194, “Synthesis and antitumor activity of novel 4-aminoquinoline derivatives” (Med Chem Res, 2013).
Activity calls are given as the source filed them. No cut-off for these calls is given here.

Key:
[1] = Antitumor activity against Homo sapiens (human) LN229 cells assessed as inhibition of cell viability after 72 hr by MTT assay; format: functional, cell-based; conditions: LN-229, 72 h
HEK293 = assay: Cytotoxicity against Homo sapiens (human) HEK293 cells assessed as inhibition of cell viability after 72 hr by MTT assay; format: cell-based; conditions: HEK293, 72 h
DU-145 = assay: Antitumor activity against Homo sapiens (human) DU145 cells assessed as inhibition of cell viability after 72 hr by MTT assay; format: functional, cell-based; conditions: DU-145, 72 h
A549 = assay: Antitumor activity against Homo sapiens (human) A549 cells assessed as inhibition of cell viability after 72 hr by MTT assay; format: functional, cell-based; conditions: A549, 72 h
HepG2 = assay: Antitumor activity against Homo sapiens (human) HepG2 cells assessed as inhibition of cell viability after 72 hr by MTT assay; format: functional, cell-based; conditions: HepG2, 72 h
HCT-116 [2] = assay: Antitumor activity against Homo sapiens (human) HCT116 cells assessed as inhibition of cell viability after 72 hr by MTT assay; format: functional, cell-based; conditions: HCT-116, 72 h
HCT-116 [3] = assay: Decrease in VEGF protein expression in Homo sapiens (human) HCT116 cells at 2.5 to 10 uM after 48 hr by westerrn blot analysis; format: functional, cell-based

| Compound | IC50 [1] | IC50 (HEK293) | IC50 (DU-145) | IC50 (A549) | IC50 (HepG2) | IC50 (HCT-116 [2]) | inhibition (HCT-116 [3]) |
| --- | --- | --- | --- | --- | --- | --- | --- |
| COc1cc(OC)c2c(Nc3ccccc3)cc(-c3ccccc3)nc2c1 | 5.9 µM | 13.2 µM | 22.2 µM | > 100 µM | 36.4 µM | 4.28 µM | – |
| COc1cc(OC)c2c(N3CCN(C)CC3)cc(-c3ccccc3)nc2c1 | 1.75 µM | 3.66 µM | 16.4 µM | > 100 µM | 22.6 µM | 7.43 µM | – |
| CCCCNc1cc(-c2ccccc2)nc2cc(OC)cc(OC)c12 | 3.92 µM | 3.23 µM | 4.63 µM | 19.6 µM | 4.46 µM | 3.05 µM | – |
| CCCNc1cc(-c2ccccc2)nc2cc(OC)cc(OC)c12 | 1.82 µM | 2 µM | 9.77 µM | 13.1 µM | 5.21 µM | 0.97 µM | Active |
| COc1cc(OC)c2c(-n3ccnc3)cc(-c3ccccc3)nc2c1 | 55.3 µM | – | > 100 µM | > 100 µM | 58.6 µM | 42.4 µM | – |
| COc1cc(OC)c2c(N3CCOCC3)cc(-c3ccccc3)nc2c1 | > 100 µM | > 100 µM | > 100 µM | > 100 µM | > 100 µM | 28.1 µM | – |
| COc1cc(OC)c2c(NCc3ccccc3)cc(-c3ccccc3)nc2c1 | 7.15 µM | – | 10.1 µM | 12.8 µM | 10.9 µM | 12 µM | – |
| COc1cc(OC)c2c(N3CCCCC3)cc(-c3ccccc3)nc2c1 | 66 µM | 68.2 µM | > 100 µM | > 100 µM | > 100 µM | 32 µM | – |
| O=c1[nH]cc(F)c(=O)[nH]1 [FLUOROURACIL] | – | – | 2.95 µM | > 100 µM | 19.2 µM | 1.93 µM | – |
| COc1cc(OC)c2c(NC3CCCCC3)cc(-c3ccccc3)nc2c1 | 6.08 µM | – | 5.47 µM | 6.59 µM | 3.16 µM | 3.82 µM | – |
